The values below come from patent publication US8735377B1, “Methods of treating herpes zoster” (priority 2010, dated 2014).

Data set [1] in a line: Plasma concentration of COL-3 in humans. The following applies: dose of about 10 to about 20 mg/day. It counts as in vivo. As to the method:
An example of a COL is 6-demethyl-6-deoxy-4-de(dimethylamino)tetracycline (COL-3). COL-3 is administered in doses of up to about 200 mg/day, preferably about 150 mg/day, more preferably about 100 mg/day, or in amounts that result in plasma concentrations of up to about 50 μg/ml, about 40 μg/ml or about 30 μg/ml. For example, a dose of about 10 to about 20 mg/day of COL-3 produces plasma concentrations in humans of about 1.0 μg/ml.

The next data set has as its system herpes zoster (shingles). As to the kind of experiment: Case report: patient on sub-antibacterial doxycycline hyclate who presented with shingles. It counts as in vivo, human. The note with it: one patient. As for the experimental part:
The below Example summarizes an incidence using 20 mg doxycycline hyclate tablets administered twice a day.
A person (hereinafter “the patient”) had been taking generic Periostat® (20 mg doxycycline hyclate b.i.d.) for over a six month period when they presented with shingles. […] By this time, the patient had blistering and vesicular lesions, and lesions consisting of deep scabs on their face (e.g., upper cheek), neck and chest. All lesions presented on patient's left side without crossing the midline.
The patient also reported being lethargic, weak and dizzy.
The medical doctor who examined the patient was very surprised to hear that the lesions were not painful. They said that the lesions were at the stage where they typically cause intense pain. The doctor predicted that, even if the lesions were not painful at the moment, they would become very painful shortly, particularly since antiviral therapy would be initiated after 72 hours of the appearance of the characteristic lesions. Accordingly, the doctor prescribed the narcotic pain reliever Percocet®.
The doctor also prescribed VALTREX®, an antiherpetic medication, in a dose of a 1 gram tablet, taken 3 times a day for 7 days. The doctor advised that VALTREX® should have been started within 2 or 3 days of the first appearance of a lesion in order to effectively minimize pain.
The patient began taking the VALTREX®, as prescribed. […]

On to `NC(=O)C1=C(O)C[C@@H]2C[C@@H]3Cc4cccc(O)c4C(=O)C3=C(O)[C@]2(O)C1=O` [COL-3, 6-demethyl-6-deoxy-4-dedimethylaminotetracycline], for which, in data set [1], the “plasma concentration in humans” value is reported as “about 1.0 μg/ml”.

With doxycycline hyclate, the “pain reported by the patient throughout the course of shingles” value with herpes zoster (shingles) (20 mg b.i.d., no analgesic taken) is recorded as “did not feel any pain whatsoever”. Further, the “inhibition of the pain typically associated with lesions of shingles” value with herpes zoster (shingles) (20 mg tablets twice a day, taken for over six months before onset, VALTREX started over 96 hours after first lesion, no analgesic) was “virtually complete inhibition”.
